The values that follow come from PubChem BioAssay AID1259411 (Chemical Carcinogenesis Research Information System (CCRIS), 2018).

The test system of this series is rodent carcinogenicity bioassays, tumor incidence. As to the kind of experiment: CCRIS carcinogenicity studies. An excerpt: The CCRIS database contains chemical records with carcinogenicity, mutagenicity, tumor promotion, and tumor inhibition test results. It was developed by the National Cancer Institute (NCI). Data are derived from studies cited in primary journals, current awareness tools, NCI reports, and other sources. Test results have been reviewed by experts in carcinogenesis and mutagenesis.
CCRIS provides historical information from the years 1985 - 2011. It is no longer updated.
This is an archive assay for CCRIS carcinogenicity studies.

Active and inactive are the calls of the source. The rule behind the calls is not given here.

As for `CCO[Si](CCC1CCC2OC2C1)(OCC)OCC` (stereo not drawn), the carcinogen call (Species: MOUSE, Strain/Sex: C3H/MALE, Route: DERMAL, Dose: 0, 2 MG IN ACETONE 3/WK FOR DURATION OF STUDY (STUDY DURATION: LIFETIME)) is “inactive; negative”.
On to `CC(=O)[O-].CC(=O)[O-].[OH-].[OH-].[OH-].[OH-].[Pb+2].[Pb+2].[Pb+2]`, for which the carcinogen call by setting is: (Species: MOUSE, Strain/Sex: STRAIN-A/MALE,FEMALE, Route: INTRAPERITONEAL, Dose: 30, 75, 150 MG/KG 3/WK FOR 5 WK, Dose: 30, 75, 150 MG/KG 3/WK FOR 5 WK, Tumor Site: Type of Lesion: LUNG: ADENOMA) “active; positive”; (Species: MOUSE, Strain/Sex: SWISS/MALE, Route: ORAL, Dose: 0.1% IN DIET FOR TWO YR, Tumor Site: Type of Lesion: KIDNEY: ADENOMA, CARCINOMA) “active; positive”; (Species: RAT, Strain/Sex: SPRAGUE-DAWLEY/MALE, Route: ORAL, Dose: 1% IN DIET, Tumor Site: Type of Lesion: KIDNEY: ADENOMA, CARCINOMA, BRAIN: GLIOMA) “active; positive”; (Species: RAT, Strain/Sex: WISTAR/MALE,FEMALE, Route: ORAL, Dose: 0.1, 1.0% IN DIET FOR UP TO 29 MO, Tumor Site: Type of Lesion: KIDNEY: CARCINOMA) “active; positive”.
As to `C=CC1CC=CCC1` (stereo not drawn), the carcinogen call (Species: MOUSE, Strain/Sex: B6C3F1/FEMALE, Route: GAVAGE, Dose: 0, 200, 400 MG/KG IN CORN OIL 5 D/WK FOR 103 WK, Dose: 0, 200, 400 MG/KG IN CORN OIL 5 D/WK FOR 103 WK, Tumor Site: Type of Lesion: OVARIES: BENIGN MIXED TUMOR, GRANULOSA CELL TUMOR, GRANULOSA CELL TUMOR OR CARCINOMA) is “active; positive”.
Turning to `CC(=O)OC/C=C(\C)CCC=C(C)C`, the carcinogen call (Species: MOUSE, Strain/Sex: B6C3F1/MALE, Route: GAVAGE, Dose: 0, 500 MG/KG OF FOOD GRADE (29% CITRONELLYL ACETATE) IN CORN OIL 5D/WK FOR 102 WK (STUDY DURATION: 104 WK)) is “inactive; negative”; the carcinogen call (Species: RAT, Strain/Sex: F344/FEMALE, Route: GAVAGE, Dose: 0, 1000, 2000 MG/KG OF FOOD GRADE (29% CITRONELLYL ACETATE) IN CORN OIL 5D/WK FOR 103 WK (STUDY DURATION: 104 WK), Dose: 0, 1000, 2000 MG/KG OF FOOD GRADE (29% CITRONELLYL ACETATE) IN CORN OIL 5D/WK FOR 103 WK (STUDY DURATION: 104 WK)) is “inactive; negative”; the carcinogen call (Species: RAT, Strain/Sex: F344/MALE, Route: GAVAGE, Dose: 0, 1000 MG/KG OF FOOD GRADE (29% CITRONELLYL ACETATE) IN CORN OIL 5D/WK FOR 103 WK (STUDY DURATION: 104 WK)) was “inactive; negative”.
As for `CC1CO1` (stereo not drawn), the carcinogen call reads like this: (Species: MOUSE, Strain/Sex: B6C3F1/FEMALE, Route: INHALATION, Dose: 0, 200, 400 PPM 6 HR/D, 5 D/WK FOR 103 WK, Dose: 0, 200, 400 PPM 6 HR/D, 5 D/WK FOR 103 WK, Tumor Site: Type of Lesion: NASAL TURBINATES: HEMANGIOMA OR HEMANGIOSARCOMA) “active; positive”; (Species: MOUSE, Strain/Sex: B6C3F1/MALE, Route: INHALATION, Dose: 0, 200, 400 PPM 6 HR/D, 5 D/WK FOR 103 WK, Dose: 0, 200, 400 PPM 6 HR/D, 5 D/WK FOR 103 WK, Tumor Site: Type of Lesion: NASAL TURBINATES: HEMANGIOMA, HEMANGIOSARCOMA) “active; positive”; (Species: MOUSE, Strain/Sex: NMRI/FEMALE, Route: SUBCUTANEOUS, Dose: 0, 0.1, 0.3, 1, 2.5 MG/MOUSE IN TRICAPRYLIN 1/WK FOR 95 WK (STUDY DURATION: 110 WK), Dose: 0, 0.1, 0.3, 1, 2.5 MG/MOUSE IN TRICAPRYLIN 1/WK FOR 95 WK (STUDY DURATION: 110 WK), Tumor Site: Type of Lesion: INJECTION SITE: TUMOR) “active; positive”; (Species: RAT, Route: SUBCUTANEOUS, Tumor Site: Type of Lesion: INJECTION SITE) “active; positive”; (Species: RAT, Strain/Sex: F344/FEMALE, Route: INHALATION, Dose: 0, 200, 400 PPM 6 HR/D, 5 D/WK FOR 103 WK, Dose: 0, 200, 400 PPM 6 HR/D, 5 D/WK FOR 103 WK, Tumor Site: Type of Lesion: NASAL TURBINATES: PAPILLARY ADENOMA) “active; positive”; (Species: RAT, Strain/Sex: F344/MALE, Route: INHALATION, Dose: 0, 100, 300 PPM IN AIR 7 HR/D 5 D/WK FOR 104 WK (STUDY DURATION: 2 YR), Dose: 0, 100, 300 PPM IN AIR 7 HR/D 5 D/WK FOR 104 WK (STUDY DURATION: 2 YR), Tumor Site: Type of Lesion: ADRENAL GLAND: PHEOCHROMOCYTOMA, PITUITARY GLAND: ADENOMA) “active; positive”. The carcinogen call is, setting by setting: (Species: RAT, Strain/Sex: F344/MALE, Route: INHALATION, Dose: 0, 200, 400 PPM 6 HR/D, 5 D/WK FOR 103 WK, Dose: 0, 200, 400 PPM 6 HR/D, 5 D/WK FOR 103 WK, Tumor Site: Type of Lesion: NASAL TURBINATES: PAPILLARY ADENOMA) “active; positive”; (Species: RAT, Strain/Sex: SPRAGUE-DAWLEY/FEMALE, Route: GAVAGE, Dose: 15, 60 MG/KG IN SALAD OIL 2/WK FOR UP TO 150 WK, Tumor Site: Type of Lesion: FORESTOMACH: SQUAMOUS CELL CARCINOMA) “active; positive”; (Species: RAT, Strain/Sex: SPRAGUE-DAWLEY/MALE, Route: INHALATION, Dose: 0, 435, 870, 1740 PPM 6 HR/D 5 D/WK FOR 30 D EXCEPT 1740 PPM GROUP WHICH WAS EXPOSED FOR 5 D (STUDY DURATION: LIFETIME), Dose: 0, 435, 870, 1740 PPM 6 HR/D 5 D/WK FOR 30 D EXCEPT 1740 PPM GROUP WHICH WAS EXPOSED FOR 5 D (STUDY DURATION: LIFETIME)) “inactive; negative”.
Consider `Clc1ccc(C(c2ccc(Cl)cc2)C(Cl)(Cl)Cl)cc1`, for which the carcinogen call is “active; positive” (Species: MOUSE, Strain/Sex: B6AKF1/MALE,FEMALE, Route: GAVAGE/ORAL, Dose: 46.4 MG/KG FROM D 7-28 OF LIFE THEN 140 PPM IN DIET, Tumor Site: Type of Lesion: LIVER: HEPATOMA); “inactive; negative” (Species: MOUSE, Strain/Sex: B6C3F1/FEMALE, Route: ORAL, Dose: 0, 87, 175 PPM IN DIET, TWA, Dose: 0, 87, 175 PPM IN DIET, TWA); “active; positive” (Species: MOUSE, Strain/Sex: B6C3F1/MALE,FEMALE, Route: GAVAGE/ORAL, Dose: 46.4 MG/KG FROM D 7-28 OF LIFE THEN 140 PPM IN DIET, Tumor Site: Type of Lesion: LIVER: HEPATOMA); “inactive; negative” (Species: MOUSE, Strain/Sex: B6C3F1/MALE, Route: ORAL, Dose: 0, 22, 90 PPM IN DIET, TWA, Dose: 0, 22, 90 PPM IN DIET, TWA); “active; positive” (Species: MOUSE, Strain/Sex: BALB/MALE, Route: ORAL, Dose: 0, 175 PPM IN ACETONE ADDED TO DIET FOR 8 WK THEN BY 125 PPM FOR 8 WK AND 100 PPM FOR 59 WK (STUDY DURATION: 75 WK), Tumor Site: Type of Lesion: LIVER: HEPATOCELLULAR ADENOMA, HEPATOCELLULAR CARCINOMA); “active; positive” (Species: MOUSE, Strain/Sex: CF-1/MALE,FEMALE, Route: DIET, Dose: 0, 50, 100 PPM FOR 2 YR, Tumor Site: Type of Lesion: LIVER). Also, the carcinogen call was “active; positive” (Species: MOUSE, Strain/Sex: CF-1/MALE,FEMALE, Route: DIET, Dose: 100 PPM FOR 110 WK, Tumor Site: Type of Lesion: LIVER); “active; positive” (Species: RAT, Route: ORAL, Tumor Site: Type of Lesion: LIVER); “inactive; negative” (Species: RAT, Strain/Sex: OSBORNE-MENDEL/FEMALE, Route: ORAL, Dose: 0, 210, 420 PPM IN DIET, TWA, Dose: 0, 210, 420 PPM IN DIET, TWA); “inactive; negative” (Species: RAT, Strain/Sex: OSBORNE-MENDEL/MALE, Route: ORAL, Dose: 0, 321, 642 PPM IN DIET, TWA, Dose: 0, 321, 642 PPM IN DIET, TWA).
